In the NIST ThermoML archive (doi:10.1021/je300517q):
± gives the expanded uncertainty stated by the source.

Assays:
[1] = Crystal; DTA
[2] = Molar enthalpy of transition or fusion; details: Crystal; DSC

## Nc1cccnn1 [3-pyridazinamine]
[1]
  Normal melting temperature: 169.47 ± 0.39 °C
[2]
  Molar enthalpy of transition or fusion: 0.629 ± 0.0406 kcal/mol
